Data from PubChem BioAssay (NCI).
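In this assay, cells in 96-well plates receive the compound at five concentrations for 48 hours. Endpoints are linearly interpolated between the surrounding concentrations. GI50 marks 50% less growth. At the TGI there is no net growth.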

system: SF-295 CNS; assay: growth of human tumour cells (NCI), 48 h

Row | SMILES | TGI | GI50
1 | O=c1nc(N2CCNCC2)oc2cc(Cl)oc(=O)c12 | 20.9 µM | 
2 | COc1ccc(C2=C(c3ccc(OC)cc3)C(=O)N3CCCC3C2)cc1 (stereo not drawn) | > 100 µM | 9.26 µM

system: SR leukemia; assay: growth of human tumour cells (NCI), 48 h

Row | SMILES | TGI | GI50
3 | COC(=O)c1s/c(=N\C(=S)N(C)C)n(-c2ccc(Cl)cc2)c1C(=O)OC | > 100 µM | 
4 | COC1CCCCN1C(=O)c1ccccc1 (stereo not drawn) | > 25.3 µM | 
5 | O=C(O)CCSC(CC1(c2ccc(Cl)cc2)NC(=O)CCS1)c1ccccc1 (stereo not drawn) | > 100 µM | 
6 | C=C1C(=O)OC2CC(C)C(C(O)CC(C)O)=CCC12 (stereo not drawn) | 29.5 µM | 
7 | O=c1nc(N2CCNCC2)oc2cc(Cl)oc(=O)c12 | 4.41 µM | 
8 | COc1ccc(C2=C(c3ccc(OC)cc3)C(=O)N3CCCC3C2)cc1 (stereo not drawn) | > 100 µM | > 37.1 µM

system: OVCAR-3 ovarian; assay: growth of human tumour cells (NCI), 48 h

Row | SMILES | TGI | GI50
9 | COC(=O)c1s/c(=N\C(=S)N(C)C)n(-c2ccc(Cl)cc2)c1C(=O)OC | > 100 µM | 
10 | COC1CCCCN1C(=O)c1ccccc1 (stereo not drawn) | > 25.3 µM | 
11 | O=C(O)CCSC(CC1(c2ccc(Cl)cc2)NC(=O)CCS1)c1ccccc1 (stereo not drawn) | 41.5 µM | 
12 | C=C1C(=O)OC2CC(C)C(C(O)CC(C)O)=CCC12 (stereo not drawn) | 25.2 µM | 
13 | O=c1nc(N2CCNCC2)oc2cc(Cl)oc(=O)c12 | 15.2 µM | 
14 | COc1ccc(C2=C(c3ccc(OC)cc3)C(=O)N3CCCC3C2)cc1 (stereo not drawn) | > 100 µM | 11.7 µM

system: LOX IMVI melanoma; assay: growth of human tumour cells (NCI), 48 h

Row | SMILES | TGI | GI50
15 | COC(=O)c1s/c(=N\C(=S)N(C)C)n(-c2ccc(Cl)cc2)c1C(=O)OC | > 100 µM | 
16 | COC1CCCCN1C(=O)c1ccccc1 (stereo not drawn) | > 25.3 µM | 
17 | O=C(O)CCSC(CC1(c2ccc(Cl)cc2)NC(=O)CCS1)c1ccccc1 (stereo not drawn) | > 100 µM | 
18 | C=C1C(=O)OC2CC(C)C(C(O)CC(C)O)=CCC12 (stereo not drawn) | 25.7 µM | 
19 | O=c1nc(N2CCNCC2)oc2cc(Cl)oc(=O)c12 | 5.89 µM | 
20 | COc1ccc(C2=C(c3ccc(OC)cc3)C(=O)N3CCCC3C2)cc1 (stereo not drawn) | 25.6 µM | 3.87 µM

system: DMS 273 small cell lung; assay: growth of human tumour cells (NCI), 48 h

Row | SMILES | TGI
21 | COC(=O)c1s/c(=N\C(=S)N(C)C)n(-c2ccc(Cl)cc2)c1C(=O)OC | > 100 µM

system: NCI-H522 lung; assay: growth of human tumour cells (NCI), 48 h

Row | SMILES | TGI | GI50
22 | COC(=O)c1s/c(=N\C(=S)N(C)C)n(-c2ccc(Cl)cc2)c1C(=O)OC | > 100 µM | 
23 | O=C(O)CCSC(CC1(c2ccc(Cl)cc2)NC(=O)CCS1)c1ccccc1 (stereo not drawn) | 41.7 µM | 
24 | C=C1C(=O)OC2CC(C)C(C(O)CC(C)O)=CCC12 (stereo not drawn) | 3.29 µM | 
25 | O=c1nc(N2CCNCC2)oc2cc(Cl)oc(=O)c12 | 5.9 µM | 
26 | COc1ccc(C2=C(c3ccc(OC)cc3)C(=O)N3CCCC3C2)cc1 (stereo not drawn) | 96.8 µM | 14.1 µM

system: MALME-3M melanoma; assay: growth of human tumour cells (NCI), 48 h

Row | SMILES | TGI | GI50
27 | COC(=O)c1s/c(=N\C(=S)N(C)C)n(-c2ccc(Cl)cc2)c1C(=O)OC | > 100 µM | 
28 | COC1CCCCN1C(=O)c1ccccc1 (stereo not drawn) | > 25.3 µM | 
29 | O=C(O)CCSC(CC1(c2ccc(Cl)cc2)NC(=O)CCS1)c1ccccc1 (stereo not drawn) | 41.6 µM | 
30 | C=C1C(=O)OC2CC(C)C(C(O)CC(C)O)=CCC12 (stereo not drawn) | 21.9 µM | 
31 | O=c1nc(N2CCNCC2)oc2cc(Cl)oc(=O)c12 | 14.5 µM | 
32 | COc1ccc(C2=C(c3ccc(OC)cc3)C(=O)N3CCCC3C2)cc1 (stereo not drawn) | > 100 µM | 52.6 µM

system: SF-539 CNS; assay: growth of human tumour cells (NCI), 48 h

Row | SMILES | TGI | GI50
33 | COC(=O)c1s/c(=N\C(=S)N(C)C)n(-c2ccc(Cl)cc2)c1C(=O)OC | > 100 µM | 
34 | O=C(O)CCSC(CC1(c2ccc(Cl)cc2)NC(=O)CCS1)c1ccccc1 (stereo not drawn) | 27.3 µM | 
35 | C=C1C(=O)OC2CC(C)C(C(O)CC(C)O)=CCC12 (stereo not drawn) | 31.3 µM | 
36 | O=c1nc(N2CCNCC2)oc2cc(Cl)oc(=O)c12 | 11.8 µM | 
37 | COc1ccc(C2=C(c3ccc(OC)cc3)C(=O)N3CCCC3C2)cc1 (stereo not drawn) | 77.1 µM | 7.95 µM

system: RPMI-8226 leukemia; assay: growth of human tumour cells (NCI), 48 h

Row | SMILES | TGI
38 | COC(=O)c1s/c(=N\C(=S)N(C)C)n(-c2ccc(Cl)cc2)c1C(=O)OC | > 100 µM
39 | O=C(O)CCSC(CC1(c2ccc(Cl)cc2)NC(=O)CCS1)c1ccccc1 (stereo not drawn) | > 100 µM
40 | C=C1C(=O)OC2CC(C)C(C(O)CC(C)O)=CCC12 (stereo not drawn) | 34.2 µM
41 | O=c1nc(N2CCNCC2)oc2cc(Cl)oc(=O)c12 | 5.62 µM
